The source made the active and inactive calls. The calls are words filed in the database; no cut-off is given here.
Assays:
[1] = tested on: Mus musculus; assay: Dose at which 50% convulsions occurred in mice (ip); format: functional
[2] = tested on: Mus musculus; assay: Dose required to induce hyperactivity in mice (ip); not active at a dose of 25.0 mg/kg; format: functional, organism-based; set-up: dose 25 mg/kg
[3] = tested on: Mus musculus; assay: Dose required to induce hypersensitivity in mice (ip); not active at a dose of 25.0 mg/kg; format: functional, organism-based; set-up: dose 25 mg/kg
[4] = tested on: Mus musculus; assay: Minimal dose required to cause aggressiveness in mice after ip administration; not active at a dose of 25.0 mg/kg; format: functional, organism-based; set-up: dose 25 mg/kg
[5] = tested on: Mus musculus; assay: Minimal dose required to cause piloerection in mice after ip administration; not active at a dose of 25.0 mg/kg; format: functional, organism-based; set-up: dose 25 mg/kg
[6] = tested on: Mus musculus; assay: Minimal dose required to induce hyperaesthesia in mice (ip); format: functional
[7] = tested on: Mus musculus; assay: Minimal dose required to induce in mice exophthalmus (ip); format: functional
[8] = tested on: Mus musculus; assay: Minimal dose required to induce in mice straub tail (ip); format: functional
[9] = tested on: Mus musculus; assay: Inhibition of reserpine (5 mg/kg i.p.) induced hypothermia in mice 2 hr after i.p. administration.; format: functional; settings: ip
[10] = tested on: Mus musculus; assay: Lethal dose by i.p. administration.; format: functional; settings: ip
[11] = tested on: Mus musculus; assay: Inhibition of reserpine (5 mg/kg i.p.) induced hypothermia in mice 4 hr after i.p. administration.; format: functional; settings: ip
[12] = tested on: Mus musculus; assay: Dose required to induce hyperactivity in mice (ip); not active at a dose of 50.0 mg/kg; format: functional, organism-based; set-up: dose 50 mg/kg
[13] = tested on: Mus musculus; assay: Dose required to induce hypersensitivity in mice (ip); not active at a dose of 50.0 mg/kg; format: functional, organism-based; set-up: dose 50 mg/kg
[14] = tested on: Mus musculus; assay: Minimal dose required to cause aggressiveness in mice after ip administration; not active at a dose of 50.0 mg/kg; format: functional, organism-based; set-up: dose 50 mg/kg
[15] = tested on: Mus musculus; assay: Minimal dose required to cause piloerection in mice after ip administration; not active at a dose of 50.0 mg/kg; format: functional, organism-based; set-up: dose 50 mg/kg
[16] = tested on: Mus musculus; assay: Minimal dose required to induce hyperaesthesia in mice (ip); not active at a dose of 50.0 mg/kg; format: functional, organism-based; set-up: dose 50 mg/kg
[17] = tested on: Mus musculus; assay: Minimal dose required to induce in mice exophthalmus (ip); not active at a dose of 50.0 mg/kg; format: functional, organism-based; set-up: dose 50 mg/kg
[18] = tested on: Mus musculus; assay: Minimal dose required to induce in mice straub tail (ip); not active at a dose of 50.0 mg/kg; format: functional, organism-based; set-up: dose 50 mg/kg
[19] = tested on: Mus musculus; assay: Dose required to induce hypersensitivity in mice (ip); format: functional
[20] = tested on: Felis catus; assay: Compound tested to induce facilitation of monosynaptic spikes in spinal ventral root by stimulation of the dorsal root (DR-VR) after iv administration in cats; range is 0.1-0.3; format: functional
[21] = tested on: Mus musculus; assay: Dose required to induce hyperactivity in mice (ip); weak at a dose of 150.0 mg/kg; format: functional, organism-based; set-up: dose 150 mg/kg
[22] = tested on: Mus musculus; assay: Minimal dose required to cause aggressiveness in mice after ip administration; not active at a dose of 150.0 mg/kg; format: functional, organism-based; set-up: dose 150 mg/kg
[23] = tested on: Mus musculus; assay: Minimal dose required to cause piloerection in mice after ip administration; not active at a dose of 150.0 mg/kg; format: functional, organism-based; set-up: dose 150 mg/kg
[24] = tested on: Mus musculus; assay: Minimal dose required to induce hyperaesthesia in mice (ip); not active at a dose of 150.0 mg/kg; format: functional, organism-based; set-up: dose 150 mg/kg
[25] = tested on: Mus musculus; assay: Minimal dose required to induce in mice exophthalmus (ip); not active at a dose of 150.0 mg/kg; format: functional, organism-based; set-up: dose 150 mg/kg
[26] = tested on: Mus musculus; assay: Minimal dose required to induce in mice straub tail (ip); not active at a dose of 150.0 mg/kg; format: functional, organism-based; set-up: dose 150 mg/kg
[27] = tested on: Mus musculus; assay: Minimal dose required to cause piloerection in mice after ip administration; format: functional
[28] = tested on: Mus musculus; assay: Minimal dose required to induce hyperaesthesia in mice (ip); not active at a dose of 25.0 mg/kg; format: functional, organism-based; set-up: dose 25 mg/kg
[29] = tested on: Mus musculus; assay: Minimal dose required to induce in mice exophthalmus (ip); not active at a dose of 25.0 mg/kg; format: functional, organism-based; set-up: dose 25 mg/kg
[30] = tested on: Mus musculus; assay: Minimal dose required to induce in mice straub tail (ip); not active at a dose of 25.0 mg/kg; format: functional, organism-based; set-up: dose 25 mg/kg

| SMILES | CD50 [1] [mg/kg] | ED50 [2] | MD [4] | MD [5] | MD [6] [mg/kg] | MD [7] [mg/kg] | MD [8] [mg/kg] | ED50 [9] [mg/kg] | LD50 [10] [mg/kg] | ED50 [11] [mg/kg] | ED50 [19] [mg/kg] | further results |
| --- | --- | --- | --- | --- | --- | --- | --- | --- | --- | --- | --- | --- |
| OC1(c2ccncc2)Cc2ccccc2C2=NCCN21 (stereo unspecified) | 37.5 | inactive | inactive | inactive | 18.8 | 18.8 | 18.8 | 2.3 | 37.9 | 3.3 | – | ED50 [3]: Weak |
| OC1(c2cccnc2)Cc2ccccc2C2=NCCN21 (stereo unspecified) | 75 | – | – | – | – | – | – | 7 | 68.8 | > 25.6 | – | ED50 [12]: inactive; ED50 [13]: inactive; MD [14]: inactive; MD [15]: inactive; MD [16]: inactive; MD [17]: inactive; MD [18]: inactive |
| CN(C)CCCN1c2ccccc2CCc2ccccc21 [IMIPRAMINE] | – | – | – | – | – | – | – | 6.3 | – | 12.8 | – | – |
| Cc1ccc(C2(O)Cc3ccccc3C3=NCCN32)cc1 (stereo unspecified) | 75 | – | – | – | 37.5 | – | 37.5 | > 25.6 | 84.1 | > 25.6 | 37.5 | ED50 [12]: inactive; MD [14]: inactive; MD [15]: inactive; MD [17]: inactive |
| OC1(c2ccccc2Cl)Cc2ccccc2C2=NCCN21 (stereo unspecified) | 37.5 | inactive | inactive | inactive | 18.8 | 9.4 | 25 | 6.1 | 34.4 | 11.5 | – | ED50 [3]: inactive |
| OC1(c2ccc(Cl)c(Cl)c2)Cc2ccccc2C2=NCCN21 (stereo unspecified) | – | – | – | – | – | – | – | 1.6 | 150 | > 25.6 | 150 | Activity [20]: 0.1 mg/kg; ED50 [21]: Weak; MD [22]: inactive; MD [23]: inactive; MD [24]: inactive; MD [25]: inactive; MD [26]: inactive |
| OC1(c2cccc(Cl)c2)Cc2ccccc2C2=NCCN21 (stereo unspecified) | 37.5 | – | – | – | – | – | – | 2.1 | 37.5 | 11.5 | – | – |
| OC1(c2cccs2)Cc2ccccc2C2=NCCN21 (stereo unspecified) | 75 | inactive | inactive | – | 18.8 | 18.8 | 18.8 | 4.5 | 68.8 | > 25.6 | 25 | MD [27]: 25 mg/kg |
| OC1(Cc2ccccc2)Cc2ccccc2C2=NCCN21 (stereo unspecified) | 37.5 | inactive | inactive | inactive | – | – | – | 5.9 | 37.5 | > 25.6 | 25 | MD [28]: inactive; MD [29]: inactive; MD [30]: inactive |
| OC1(c2ccccc2F)Cc2ccccc2C2=NCCN21 (stereo unspecified) | – | – | – | – | – | – | – | 5.1 | 35.5 | > 11.5 | – | – |

From ChEMBL document CHEMBL1122475, “Antidepressant activity of 5-aryl-2,3,5,6-tetrahydroimidazo[2,1-a]isoquinolin-5-ols” (1983)
